Source: ChEMBL document CHEMBL1158304, “New Oxygenated Cephalotaxus Alkaloids from Cephalotaxus harringtonia var. drupacea” (J Nat Prod, 1996)
In brackets after ≈: the same amount, converted by molar mass.

Tested on: P388
Test: Cytotoxicity against mouse P388 cells
Format: functional, cell-based

Row | Compound | IC50 [µg/mL]
1 | COC(=O)C[C@](O)(CCCC(C)C)C(=O)O[C@@H]1C(OC)=C[C@]23CCCN2C[C@H](O)c2cc4c(cc2[C@H]13)OCO4 | 0.33 (≈ 0.605 µM)
2 | COC(=O)C[C@](O)(CCCC(C)C)C(=O)O[C@@H]1C(OC)=C[C@]23CCCN2C[C@@H](O)c2cc4c(cc2[C@H]13)OCO4 | 0.38 (≈ 0.696 µM)
3 | COC(=O)C[C@](O)(CCC(C)C)C(=O)O[C@@H]1C(OC)=C[C@]23CCCN2C[C@H](O)c2cc4c(cc2[C@H]13)OCO4 | 0.17 (≈ 0.32 µM)
